Among the test systems are NCI-H23 lung; NCI/ADR-RES ovarian; TK-10 renal; MCF7 breast; SW-620 colon; SK-MEL-2 melanoma; SR leukemia; 786-0 renal; HS 578T breast; CCRF-CEM leukemia; MOLT-4 leukemia.
What all share (experiment): inhibition of tumour cell growth, NCI panel, 48 h

The structures appear in SMILES notation.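 Cells were grown in 96-well plates and exposed to each compound for 48 hours at five concentrations; endpoints were interpolated linearly between bracketing concentrations, or set to the highest concentration if not reached. TGI is the concentration that stops growth completely.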

With `Clc1ncc(Cl)c(Cl)n1`, the TGI in the test on NCI-H23 lung was 42.3 µM; in the test on NCI/ADR-RES ovarian it was 20.5 µM; in the test with TK-10 renal, 23.1 µM; in the test on MCF7 breast, 4.8 µM; in the test on SW-620 colon, 2.94 µM; in the test on SK-MEL-2 melanoma it was 6.08 µM. Besides, the TGI in the test on SR leukemia is 5.62 µM; in the test on 786-0 renal, 7.49 µM; in the test on HS 578T breast, 14.9 µM; in the test on CCRF-CEM leukemia, greater than 100 µM; in the test with MOLT-4 leukemia, 4.31 µM.
As to `Cc1nc2ccccc2n1Cc1nnc(N)o1`, the TGI with NCI-H23 lung, in the test on NCI/ADR-RES ovarian, with TK-10 renal, in the test on MCF7 breast, in the test with SW-620 colon and in the test on SK-MEL-2 melanoma was greater than 100 µM each time. Besides, the TGI with SR leukemia, in the test with 786-0 renal, in the test on HS 578T breast, with CCRF-CEM leukemia and in the test with MOLT-4 leukemia was greater than 100 µM each time.
For the compound `COC(=O)c1cc(C(=CCC[C@H]2CC[C@@]3(C)C(CCC4C3CC[C@@]3(C)C4CC[C@@H]3C(C)CCCC(C)C)C2)c2cc(Cl)c(OC(=O)c3ccccc3)c(C(=O)OC)c2)cc(Cl)c1OC(=O)c1ccccc1` (some centres not stated), the TGI with NCI-H23 lung, with NCI/ADR-RES ovarian, with TK-10 renal, in the test with MCF7 breast, in the test on SW-620 colon and in the test on SK-MEL-2 melanoma was greater than 10 µM throughout. Further, the TGI in the test with SR leukemia, in the test with 786-0 renal, in the test with HS 578T breast, with CCRF-CEM leukemia and with MOLT-4 leukemia was greater than 10 µM throughout.
Consider `C=CCN(c1cc(OC)c2[nH]cc(C)c2c1[N+](=O)[O-])S(C)(=O)=O`, for which the TGI in the test with NCI-H23 lung, with NCI/ADR-RES ovarian, in the test with TK-10 renal, in the test with MCF7 breast, with SW-620 colon and with SK-MEL-2 melanoma was greater than 100 µM throughout. The TGI in the test with SR leukemia, in the test on 786-0 renal, with HS 578T breast, in the test on CCRF-CEM leukemia and in the test on MOLT-4 leukemia was greater than 100 µM in each case.
Regarding `CCOc1ccc2nc(NC(NC(=O)c3cccnc3)(C(F)(F)F)C(F)(F)F)sc2c1`, the TGI was 65.5 µM with NCI-H23 lung; 93.3 µM in the test on NCI/ADR-RES ovarian; greater than 100 µM in the test on TK-10 renal; 91.4 µM in the test with MCF7 breast; greater than 100 µM with SW-620 colon; greater than 100 µM in the test on SK-MEL-2 melanoma. Besides, the TGI in the test on SR leukemia was greater than 100 µM; in the test with 786-0 renal, 94.3 µM; in the test with HS 578T breast, greater than 100 µM; in the test on CCRF-CEM leukemia it was 67.9 µM; with MOLT-4 leukemia it was 55.5 µM.
For the compound `N=c1c2c(=S)n(-c3ccccc3)c(=S)n(-c3ccccc3)c2nc(SCCN2CCOCC2)n1-c1ccccc1`, the TGI in the test on NCI-H23 lung was 7.02 µM; in the test on NCI/ADR-RES ovarian, 14.6 µM; in the test on TK-10 renal, 3.1 µM; in the test with MCF7 breast it was greater than 100 µM; in the test on SW-620 colon it was 3.96 µM; in the test with SK-MEL-2 melanoma it was 8.17 µM. Moreover, the TGI with SR leukemia is 2.79 µM; with 786-0 renal, 3.14 µM; in the test on HS 578T breast it was greater than 100 µM; with CCRF-CEM leukemia, 3.19 µM; in the test on MOLT-4 leukemia it was 3.75 µM.
On to `CC(=O)O[C@H]1C[C@H]2C(=S)Nc3ccccc3C(=S)N2C1`, for which the TGI with NCI-H23 lung, in the test with NCI/ADR-RES ovarian, in the test on TK-10 renal, with MCF7 breast, with SW-620 colon and in the test on SK-MEL-2 melanoma was greater than 100 µM in each case. The TGI in the test on SR leukemia, with 786-0 renal, in the test on HS 578T breast, with CCRF-CEM leukemia and in the test with MOLT-4 leukemia was greater than 100 µM each time.
